From US20250066344A1 (BRISTOL-MYERS SQUIBB COMPANY, priority 2021, published 2025)

target: T1, human RXFP1 (Homo sapiens, UniProt Q9HBX9); assay: RXFP1 cyclic adenosine monophosphate (cAMP) assay, hRXFP1 HEK293; type: cell-based; conditions: HEK293 cells stably expressing human RXFP1; 30 min at room temperature; HTRF cAMP
T1 construct: expressed in transfected cells
T1 sequence (Q9HBX9 1-757): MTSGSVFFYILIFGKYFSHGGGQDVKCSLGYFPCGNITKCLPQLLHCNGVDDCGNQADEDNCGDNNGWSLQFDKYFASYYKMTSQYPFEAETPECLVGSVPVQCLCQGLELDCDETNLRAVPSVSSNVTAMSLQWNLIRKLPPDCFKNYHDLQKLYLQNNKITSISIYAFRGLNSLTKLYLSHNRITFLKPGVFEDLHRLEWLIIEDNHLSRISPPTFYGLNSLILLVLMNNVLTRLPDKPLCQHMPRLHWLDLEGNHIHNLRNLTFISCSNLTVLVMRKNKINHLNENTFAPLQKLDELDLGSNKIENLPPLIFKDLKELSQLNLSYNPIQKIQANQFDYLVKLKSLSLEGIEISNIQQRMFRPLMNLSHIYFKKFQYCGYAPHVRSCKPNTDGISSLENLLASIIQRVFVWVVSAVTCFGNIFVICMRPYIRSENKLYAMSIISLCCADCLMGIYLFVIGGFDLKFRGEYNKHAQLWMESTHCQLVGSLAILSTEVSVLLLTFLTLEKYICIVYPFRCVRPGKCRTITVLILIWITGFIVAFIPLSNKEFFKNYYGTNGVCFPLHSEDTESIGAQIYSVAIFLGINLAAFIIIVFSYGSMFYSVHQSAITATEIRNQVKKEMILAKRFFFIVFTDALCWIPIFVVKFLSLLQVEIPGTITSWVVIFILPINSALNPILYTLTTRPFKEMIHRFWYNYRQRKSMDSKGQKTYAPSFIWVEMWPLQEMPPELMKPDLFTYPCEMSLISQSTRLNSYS
Procedure: RXFP1 Cyclic Adenosine Monophosphate (cAMP) Assays. Human embryonic kidney cells 293 (HEK293) cells and HEK293 cells stably expressing human RXFP1, were cultured in MEM medium supplemented with 10% qualified FBS, and 300 μg/ml hygromycin (Life Technologies). Cells were dissociated and suspended in assay buffer. The assay buffer was HBSS buffer (with calcium and magnesium) containing 20 mM HEPES, 0.05% BSA, and 0.5 mM IBMX. Cells (3000 cells per well, except 1500 cell per well for HEK293 cells stably expressing human RXFP1) were added to 384-well Proxiplates (Perkin-Elmer). Cells were immediately treated with test compounds in DMSO (2% final) at final concentrations in the range of 0.010 nM to 50 μM. Cells were incubated for 30 min at room temperature. The level of intracellular cAMP was determined using the HTRF HiRange cAMP assay reagent kit (Cisbio) according to manufacturer's instructions. Solutions of cryptate conjugated anti-cAMP and d2 fluorophore-labelled cAMP were made in a supplied lysis buffer separately. Upon completion of the reaction, the cells were lysed with equal volume of the d2-cAMP solution and anti-cAMP solution. After a 1 h room temperature incubation, time-resolved fluorescence intensity was measured using the Envision (Perkin-Elmer) at 400 nm excitation and dual emission at 590 nm and 665 nm. A calibration curve was constructed with an external cAMP standard at concentrations ranging from 2.7 μM to 0.1 μM by plotting the fluorescent intensity ratio from 665 nm emission to the intensity from the 590 nm emission against cAMP concentrations. The potency and activity of a compound to […] cAMP production was then determined by fitting to a 4-parametric logistic equation from a plot of cAMP level versus compound concentrations.
The examples disclosed below were tested in the human RXFP1 (hRXFP) HEK293 cAMP assay described above and found to have agonist activity. Tables 1-3, lists EC50 values in the hRXFP1 HEK293 cAMP assay measured for the examples.
Table A lists EC50 values in the hRXFP1 HEK293 cAMP assay measured for the examples.

Compound	EC50 [nM]
COc1ccc(N2CC(CO)CC2=O)cc1C(=O)Nc1cc2nc(C)sc2cc1C(=O)Nc1ccc(F)c(C(F)(F)F)c1 (stereo not shown) [Example 13, N-(4-fluoro-3-(trifluorometh-yl)phenyl)-5-(5-(4-(hy-droxymethyl)-2-oxopyrroli-din-1-yl)-2-methoxybenz-amido)-2-methylbenzo [d]thiazole-6-carboxamide]	540
COc1ccc(S(=O)(=O)N2CCOC[C@@H]2CO)cc1C(=O)Nc1cc2nc(C)sc2cc1C(=O)Nc1ccc(F)c(C(F)(F)F)c1 [Example 14, (S)-N-(4-fluoro-3-(tri-fluoromethyl)-phenyl)-5-(5-((3-(hydroxy-methyl)morph-olino)sulfon-yl)-2-methoxy-benzamido)-2-methylbenzo [d]thiazole-6-carboxamide]	1400
COc1ccc(C2=NOC3C4CC(C(=O)N4)C23)cc1C(=O)Nc1cc2nc(C)sc2cc1C(=O)Nc1ccc(F)c(C(F)(F)F)c1 (stereo not shown) [Example 15, N-(4-fluoro-3-(trifluoro-methyl)phen-yl)-5-(2-meth-oxy-5-(5-oxo-3a,4,5,6,7,7a-hexahydro-4,7-methano-isoxazolo[5,4-c]pyridin-3-yl)benzami-do)-2-methyl-benzo[d]thi-azole-6-car-boxamide]	180
COc1ccc(-c2cc([C@H](OC(=O)NC3CCC3)C(F)(F)F)ccc2F)cc1C(=O)Nc1cc2sc(C)nc2cc1C(=O)Nc1ccc(F)c(C(F)(F)F)c1 [Example 16, (S)-2,2,2-trifluoro-1-(6-fluoro-3′-((5-((4-fluoro-3-(trifluorometh-yl)phenyl)car-bamoyl)-2-methylbenzo [d]thiazol-6-yl)carbamoyl)-4′-methoxy-[1,1′-biphen-yl]-3-ylethylcyclobutylcar-bamate]	46
COc1ccc(C2=NOC3CC(CO)CC23)cc1C(=O)Nc1cc2nc(C)sc2cc1C(=O)NC1CCCC1 (stereo not shown) [Example 19, N-cyclopent-yl-5-(5-(5-(hydroxymeth-yl)-3a,5,6,6a-tetrahydro-4H-cyclopenta[d]isoxazol-3-yl)-2-methoxy-benzamido)-2-methylbenzo [d]thiazole-6-carboxamide]	1000
COc1ccc(N2CC(CN)CC2=O)cc1C(=O)Nc1cc2nc(C)sc2cc1C(=O)Nc1ccc(F)c(C(F)(F)F)c1 (stereo not shown) [Example 21, 5-(5-(4-(ami-nomethyl)-2-oxopyrrolidin-1-yl)-2-meth-oxybenzami-do)-N-(4-fluoro-3-(tri-fluoromethyl)-phenyl)-2-methylbenzo [d]thiazole-6-carboxamide]	4100
COc1ccc(C2=NOC3COCC23)cc1C(=O)Nc1cc2nc(C)sc2cc1C(=O)NC1CCCC1 (stereo not shown) [Example 29, N-cyclopentyl-5-(2-methoxy-5-(3a,4,6,6a-tetrahydrofuro [3,4-d]isox-azol-3-yl)-benzamido)-2-methylbenzo [d]thiazole-6-carboxamide]	2700
COc1ccc(-c2cc(C(=O)O)ccc2F)cc1C(=O)Nc1cc2c(C)noc2cc1C(=O)Nc1ccc(F)c(C(F)(F)F)c1 [Example 31, 6-fluoro-3′-((6-((4-fluoro-3-(trifluoromethyl)phenyl)carbamoyl)-3-methylbenzo[d]isoxazol-5-yl)carbamoyl)-4′-methoxy-[1,1′-biphenyl]-3-carboxylic acid]	116
COc1ccc(-c2cc([C@H](OC(=O)NC3CCC3)C(F)(F)F)ccc2F)cc1C(=O)Nc1cc2c(C)noc2cc1C(=O)Nc1ccc(F)c(C(F)(F)F)c1 [Example 32, (S)-2,2,2-trifluoro-1-(6-fluoro-3′-((6-((4-fluoro-3-(trifluoromethyl)phenyl)carbamoyl)-3-methylbenzo[d]isoxazol-5-yl)carbamoy])-4-methoxy-[1,1′-biphenyl]-3-yl)ethyl cyclobutylcarbamate]	18
COc1ccc(C#CC(C)(C)O)cc1C(=O)Nc1cc2c(C)noc2cc1C(=O)Nc1ccc(F)c(C(F)(F)F)c1 [Example 34, N-(4-fluoro-3-(trifluoromethyl)phenyl)-5-(5-(3-hydroxy-3-methylbut-1-yn-1-yl)-2-methoxybenzamido)-methylbenzo[d]isoxazole-6-carboxamide]	1340
COc1ccc(C(=O)NCC2(S(C)(=O)=O)CC2)cc1C(=O)Nc1cc2c(cc1C(=O)Nc1ccc(F)c(C(F)(F)F)c1)OC(F)(F)O2 [Example 35, N3-(2,2-difluoro-6-((4-fluoro-3-(trifluoromethyl)phenyl)carbamoyl)benzo[d][1,3]dioxol-5-yl)-4-methoxy-N1-((1-(methylsulfonyl)cyclopropyl)methyl)isophthalamide]	6
COc1cc(F)c(C(=O)NCC2(S(C)(=O)=O)CC2)cc1C(=O)Nc1cc2c(cc1C(=O)Nc1ccc(F)c(C(F)(F)F)c1)OC(F)(F)O2 [Example 36, N1-(2,2-difluoro-6-((4-fluoro-3-(trifluoromethyl)phenyl)carbamoyl)benzo[d] [1,3]dioxol-5-yl)-4-fluoro-6-methoxy-N3-((1-(methylsulfonyl)cyclopropyl)methyl)iso-phthalamide]	14
COc1ccc(C(=O)N2CCCC(CO)C2)cc1C(=O)Nc1cc2c(cc1C(=O)Nc1ccc(F)c(C(F)(F)F)c1)OC(F)(F)O2 (stereo not shown) [Example 37, 2,2-difluoro-N-(4-fluoro-3-(trifluoromethyl)phenyl)-6-(5-(3-(hydroxymethyl)piperidine-1-carbonyl)-2-methoxybenzamido) benzo[d][1,3]dioxole-5-carboxamide]	56

More lines, now with the values ahead:

EC50 [nM]	Compound
84	COc1ccc(C(=O)N2CC(C(C)(C)O)C2)cc1C(=O)Nc1cc2c(cc1C(=O)Nc1ccc(F)c(C(F)(F)F)c1)OC(F)(F)O2 [Example 38, 2,2-difluoro-N-(4-fluoro-3-(trifluoromethyl)phenyl)-6-(5-(3-(2-hydroxypropan-2-yl)azetidine-1-carbonyl)-2-methoxybenzamido) benzo[d][1,3]dioxole-5-carboxamide]
90	COc1ccc(C(=O)N2CC(C)(O)C2)cc1C(=O)Nc1cc2c(cc1C(=O)Nc1ccc(F)c(C(F)(F)F)c1)OC(F)(F)O2 [Example 39, 2,2-difluoro-N-(4-fluoro-3-(trifluoromethyl)phenyl)-6-(5-(3-hydroxy-3-methylazetidine-1-carbonyl)-2-methoxybenzamido) benzo[d][1,3]dioxole-5-carboxamide]
196	COc1ccc(C(=O)N2CC[C@@H](O)C2)cc1C(=O)Nc1cc2c(cc1C(=O)Nc1ccc(F)c(C(F)(F)F)c1)OC(F)(F)O2 [Example 40, (R)-2,2-difluoro-N-(4-fluoro-3-(trifluoromethyl)phenyl)-6-(5-(3-hydroxypyrrolidine-1-carbonyl)-2-methoxybenzamido) benzo[d][1,3]dioxole-5-carboxamide]
562	COc1ccc(C(=O)N(C)CCS(C)(=O)=O)cc1C(=O)Nc1cc2c(cc1C(=O)Nc1ccc(F)c(C(F)(F)F)c1)OC(F)(F)O2 [Example 41]
1200	COc1ccc(C(=O)N2CCC3(CC2)COC3)cc1C(=O)Nc1cc2c(cc1C(=O)Nc1ccc(F)c(C(F)(F)F)c1)OC(F)(F)O2 [Example 42, 2,2-difluoro-N-(4-fluoro-3-(trifluoromethyl)phenyl)-6-(2-methoxy-5-(2-oxa-7-azaspiro[3.5]nonane-7-carbonyl)benzamido) benzo[d][1,3]dioxole-5-carboxamide]
16	COc1ccc(C2=NOC3CN(C(=O)CO)CC23)cc1C(=O)Nc1cc2c(cc1C(=O)Nc1ccc(F)c(C(F)(F)F)c1)OC(F)(F)O2 (stereo not shown) [Example 44, 2,2-difluoro-N-(4-fluoro-3-(trifluoromethyl)phenyl)-6-(5-(5-(2-hydroxyacetyl)-3a,5,6,6a-tetrahydro-4H-pyrrolo[3,4-d]isoxazol-3-yl)-2-methoxybenzamido)benzo[d][1,3]dioxole-5-carboxamide]
